Results: PubChem BioAssay AID2060512 (Molecular Pharmacology Branch, DTP, NCI, 2025)

System: 186277-243-T-J2-PDC complex spheroid viability
Experiment: Anticancer human tumor 186277-243-T-J2-PDC patient-derived colon adenocarcinoma cell line growth inhibition [GQUAD]
Details: for IC50: curve of first compound; for viability, T/C: stronger effect = lower value
Summary of the method: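 Viability of tumor cells grown as complex spheroids with endothelial and stromal cells, exposed to drug combinations. Top concentration at or near clinical Cmax (else 10 microM), diluted in half-log increments.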

[1] = second compound 0.0316 µM, first compound 0.0316 µM
[2] = second compound 0.0316 µM, first compound 0.1 µM
[3] = second compound 0.0316 µM, first compound 0.316 µM
[4] = second compound 0.0316 µM, first compound 1 µM
[5] = second compound 0.0316 µM, first compound 3.16 µM
[6] = second compound 0.0316 µM, first compound 10 µM
[7] = second compound 0.1 µM, first compound 0.0316 µM
[8] = second compound 0.1 µM, first compound 0.1 µM
[9] = second compound 0.1 µM, first compound 0.316 µM
[10] = second compound 0.1 µM, first compound 1 µM
[11] = second compound 0.1 µM, first compound 3.16 µM
[12] = second compound 0.1 µM, first compound 10 µM
[13] = second compound 0.316 µM, first compound 0.0316 µM
[14] = second compound 0.316 µM, first compound 0.1 µM
[15] = second compound 0.316 µM, first compound 0.316 µM
[16] = second compound 0.316 µM, first compound 1 µM
[17] = second compound 0.316 µM, first compound 3.16 µM
[18] = second compound 0.316 µM, first compound 10 µM
[19] = second compound 1 µM, first compound 0.0316 µM
[20] = second compound 1 µM, first compound 0.1 µM
[21] = second compound 1 µM, first compound 0.316 µM
[22] = second compound 1 µM, first compound 1 µM
[23] = second compound 1 µM, first compound 3.16 µM
[24] = second compound 1 µM, first compound 10 µM
[25] = second compound 3.16 µM, first compound 0.0316 µM
[26] = second compound 3.16 µM, first compound 0.1 µM
[27] = second compound 3.16 µM, first compound 0.316 µM
[28] = second compound 3.16 µM, first compound 1 µM
[29] = second compound 3.16 µM, first compound 3.16 µM
[30] = second compound 3.16 µM, first compound 10 µM
[31] = second compound 10 µM, first compound 0.0316 µM
[32] = second compound 10 µM, first compound 0.1 µM
[33] = second compound 10 µM, first compound 0.316 µM
[34] = second compound 10 µM, first compound 1 µM
[35] = second compound 10 µM, first compound 3.16 µM
[36] = second compound 10 µM, first compound 10 µM
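Wherever viability, T/C is given: 100% = DMSO vehicle control viability.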

Work on `CC1COCCN1c1cc(C2(S(C)(=N)=O)CC2)nc(-c2ccnc3[nH]ccc23)n1` (centres undefined) + Cc1cnc(CNC(=O)c2c(=O)c3ccc(N4CCCN(C)CC4)nc3n3c2sc2ccccc23)cn1 yielded an IC50 (second compound 0.0316 µM) of 787 nM, an IC50 (second compound 0.1 µM) of 579 nM and an IC50 (second compound 0.316 µM) of 885 nM. It also gave an IC50 (second compound 1 µM) of 564 nM, an IC50 (second compound 3.16 µM) of less than 31.6 nM and an IC50 (second compound 10 µM) of 65.4 nM. It also gave a viability, T/C [1] of 107%, a viability, T/C [2] of 92.4% and a viability, T/C [3] of 89.8%. It also gave a viability, T/C [4] of 39.4%, a viability, T/C [5] of 13.1% and a viability, T/C [6] of 8.67%. The viability, T/C [7] was 101%, the viability, T/C [8] was 73.4% and the viability, T/C [9] was 68.2%. For the same molecule, the viability, T/C [10] was 39.8%, the viability, T/C [11] was 18.4% and the viability, T/C [12] was 9.76%. The viability, T/C [13] was 73.3%, the viability, T/C [14] was 83.1% and the viability, T/C [15] was 66.7%. For the same molecule, the viability, T/C [16] was 47.5%, the viability, T/C [17] was 27.2% and the viability, T/C [18] was 17%. For the same molecule, the viability, T/C [19] was 46.2%, the viability, T/C [20] was 64.6% and the viability, T/C [21] was 64.6%. For the same molecule, the viability, T/C [22] was 41.6%, the viability, T/C [23] was 31.6% and the viability, T/C [24] was 21.3%. For the same molecule, the viability, T/C [25] was 41.8%, the viability, T/C [26] was 48.6% and the viability, T/C [27] was 50.6%. It also gave a viability, T/C [28] of 44.5%, a viability, T/C [29] of 39.2% and a viability, T/C [30] of 19.4%. It also gave a viability, T/C [31] of 50.6%, a viability, T/C [32] of 52% and a viability, T/C [33] of 43.2%. It also gave a viability, T/C [34] of 37%, a viability, T/C [35] of 31.6% and a viability, T/C [36] of 22%.
`Cc1cccc(N(C)C(=O)C2C(O)CCN2c2nc(C)cc(C(F)(F)F)c2C#N)c1` (centres undefined) + Cc1cnc(CNC(=O)c2c(=O)c3ccc(N4CCCN(C)CC4)nc3n3c2sc2ccccc23)cn1 gave an IC50 (second compound 0.0316 µM) greater than 10000 nM, an IC50 (second compound 0.1 µM) greater than 10000 nM and an IC50 (second compound 0.316 µM) greater than 10000 nM. The IC50 (second compound 1 µM) was greater than 10000 nM, the IC50 (second compound 3.16 µM) was less than 31.6 nM and the IC50 (second compound 10 µM) was less than 31.6 nM. It also gave a viability, T/C [1] of 107%, a viability, T/C [2] of 110% and a viability, T/C [3] of 109%. The viability, T/C [4] was 100%, the viability, T/C [5] was 102% and the viability, T/C [6] was 117%. The viability, T/C [7] was 92.8%, the viability, T/C [8] was 93.3% and the viability, T/C [9] was 97.4%. It also gave a viability, T/C [10] of 105%, a viability, T/C [11] of 94.8% and a viability, T/C [12] of 78.8%. It also gave a viability, T/C [13] of 73%, a viability, T/C [14] of 84.1% and a viability, T/C [15] of 75.1%. It also gave a viability, T/C [16] of 71.7%, a viability, T/C [17] of 76.6% and a viability, T/C [18] of 88.5%. For the same molecule, the viability, T/C [19] was 51.6%, the viability, T/C [20] was 70.4% and the viability, T/C [21] was 68.6%. The viability, T/C [22] was 59.5%, the viability, T/C [23] was 64.9% and the viability, T/C [24] was 65%. For the same molecule, the viability, T/C [25] was 42.2%, the viability, T/C [26] was 52.2% and the viability, T/C [27] was 47.9%. For the same molecule, the viability, T/C [28] was 47.1%, the viability, T/C [29] was 52.9% and the viability, T/C [30] was 51.9%. It also gave a viability, T/C [31] of 45.3%, a viability, T/C [32] of 45.9% and a viability, T/C [33] of 38%. It also gave a viability, T/C [34] of 41.6%, a viability, T/C [35] of 53.1% and a viability, T/C [36] of 51.4%.
